Here are results for 23 compounds from patent publication US20230348456A1, “QUINAZOLINONES, PHARMACEUTICAL COMPOSITIONS CONTAINING THE SAME, AND METHODS OF USING THE SAME” (Repare Therapeutics Inc., priority 2022, published 2023).

This assay deals with recombinant human Myt1 (Homo sapiens (Human), UniProt Q99640). Briefly: Myt1 enzymatic assay (ADP-Glo kinase assay). In kind it is biochemical. The settings on record: recombinant human Myt1 18 nM, ATP 10 μM. In a few lines: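 ADP-Glo luminescence measured ATP hydrolysis by recombinant full-length PKMYT1 (18 nM) after 60 min at 30 °C with 10 μM ATP. Compounds in 0.5% DMSO were added to the enzyme 15 min before ATP, at 22 °C, in HEPES/MgCl2/MnCl2 buffer. IC50 and percent maximal inhibition were derived.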
recombinant human Myt1, sequence (Q99640 whole entry): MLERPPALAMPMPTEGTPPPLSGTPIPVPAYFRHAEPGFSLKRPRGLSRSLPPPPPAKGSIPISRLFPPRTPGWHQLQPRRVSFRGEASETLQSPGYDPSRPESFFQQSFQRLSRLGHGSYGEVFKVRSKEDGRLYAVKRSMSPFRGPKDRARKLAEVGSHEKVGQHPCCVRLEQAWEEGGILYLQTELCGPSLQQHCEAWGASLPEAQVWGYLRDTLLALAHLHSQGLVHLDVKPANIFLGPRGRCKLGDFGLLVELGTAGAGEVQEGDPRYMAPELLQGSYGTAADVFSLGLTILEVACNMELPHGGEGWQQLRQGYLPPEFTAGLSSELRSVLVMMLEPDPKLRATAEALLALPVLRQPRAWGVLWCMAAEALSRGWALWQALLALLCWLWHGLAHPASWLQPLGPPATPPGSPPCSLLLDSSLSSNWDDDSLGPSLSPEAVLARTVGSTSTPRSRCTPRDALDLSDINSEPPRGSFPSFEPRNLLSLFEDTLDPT
As usually defined, the IC50 is the midpoint of a concentration-inhibition curve. With `Cc1ccc(O)cc1-c1cc(-c2ncc(CN3CCOCC3)s2)c2c(c1N)C(=O)NC2` [Compound 143], the IC50 was 1.6 µM. As for `Cc1ccc(O)cc1-c1cc(-c2nc(NC(=O)C3CCOCC3)cs2)c2c(c1N)C(=O)NC2` [Compound 144], the IC50 worked out at 0.93 µM. Consider `Cc1ccc(O)cc1-c1cc(-c2nc(C(=O)NCCO)cs2)c2c(c1N)C(=O)NC2` [Compound 145], for which the IC50 was 0.645 µM. For `Cc1ccc(O)cc1-c1cc(-c2nc(CN3CCOCC3)cs2)c2c(c1N)C(=O)NC2` [Compound 146] the value was 0.135 µM. For `Cc1ccc(O)cc1-c1cc(-c2ncc(C(=O)NCCO)s2)c2c(c1N)C(=O)NC2` [Compound 147] the value was 0.209 µM. As for `Cc1ccc(O)cc1-c1cc(-c2ncc(C(=O)O)s2)c2c(c1N)C(=O)NC2` [Compound 148], the IC50 came out at 1.86 µM. For `Cc1ccc(O)cc1-c1cc(-c2nc(C(F)(F)F)cs2)c2c(c1N)C(=O)NC2` [Compound 149] the value was 0.682 µM; for `CNC(=O)c1cnc(-c2cc(-c3cc(O)ccc3C)c(N)c3c2CNC3=O)s1` [Compound 150], 0.163 µM. On to `Cc1ccc(O)cc1-c1cc(-c2nc(C(=O)N(C)C)cs2)c2c(c1N)C(=O)NC2` [Compound 151], for which the IC50 turned out to be 0.061 µM.

For the compound `Cc1ccc(O)cc1-c1cc(-c2ncc(C(=O)N3CCOCC3)s2)c2c(c1N)C(=O)NC2` [Compound 152], the IC50 turned out to be 0.683 µM. Turning to `Cc1ccc(O)cc1-c1cc(-c2ncc(C(=O)NC(C)C)s2)c2c(c1N)C(=O)NC2` [Compound 153], the IC50 stood at 0.477 µM.

As to `Cc1ccc(O)cc1-c1cc(-c2ncc(C(=O)N(C)C)s2)c2c(c1N)C(=O)NC2` [Compound 154], the IC50 stood at 0.298 µM.

On to `Cc1ccc(O)cc1-c1cc(-c2ncc(C#N)s2)c2c(c1N)C(=O)NC2` [Compound 155], for which the IC50 turned out to be 0.179 µM. As to `Cc1ccc(O)cc1-c1cc(-c2ncc(Cl)s2)c2c(c1N)C(=O)NC2` [Compound 156], the IC50 stood at 0.576 µM. On to `Cc1ccc(O)cc1-c1cc(-c2nc(C(=O)N3CCOCC3)cs2)c2c(c1N)C(=O)NC2` [Compound 157], for which the IC50 came out at 0.244 µM. For `Cc1ccc(O)cc1-c1cc(-c2nc(C(=O)NC(C)C)cs2)c2c(c1N)C(=O)NC2` [Compound 158] the value was 0.055 µM; for `CNC(=O)c1csc(-c2cc(-c3cc(O)ccc3C)c(N)c3c2CNC3=O)n1` [Compound 159], 0.075 µM. Consider `Cc1ccc(O)cc1-c1cc(-c2nc(C#N)cs2)c2c(c1N)C(=O)NC2` [Compound 160], for which the IC50 came out at 0.237 µM. For `Cc1ccc(O)cc1-c1cc(-c2nc(Cl)cs2)c2c(c1N)C(=O)NC2` [Compound 161, 7-amino-4-(4-chlorothiazol-2-yl)-6-(5-hydroxy-2-methylphenyl)isoindolin-1-one] the value was 0.253 µM; for `Cc1ccc(O)cc1-c1cc(-c2nc(C(=O)O)cs2)c2c(c1N)C(=O)NC2` [Compound 162], 0.182 µM; for `Cc1ccc(O)cc1-c1cc(-c2ccccc2)c2c(c1N)C(=O)NC2` [Compound 163, 7-amino-6-(5-hydroxy-2-methyl-phenyl)-4-phenyl-isoindolin-1-one], 1.07 µM. For `Cc1ccc(O)cc1-c1cc(-c2nccs2)c2cc[nH]c(=O)c2c1N` [Compound 164, 8-amino-7-(5-hydroxy-2-methyl-phenyl)-5-thiazol-2-yl-2H-isoquinolin-1-one] the value was 0.012 µM; for `Nc1c(-c2cccc3[nH]ncc23)cc(-c2nccs2)c2nc(Oc3ccccc3)[nH]c(=O)c12` [Compound 165, 5-amino-6-(1H-indazol-4-yl)-2-phenoxy-8-(thiazol-2-yl)quinazolin-4(3H)-one], 0.596 µM.
